Experimental data published in US12390437B2, “Itaconic acid derivatives and uses thereof intreating an inflammatory disease or a disease associated with an undesirable immune response” (Sitryx Therapeutics Limited, priority 2019, dated 2025).
pEC50, pIC50: −log10 of the molar value. Structures can show the parent of a compound that is named as a salt.

The compounds below were run on NQO1 (assay: NQO1 enzyme activation assay as a readout of NRF2 activation in THP-1 cells). Details: Homo sapiens, THP-1; percentage activation at top concentration, normalised to DMF (100%) and vehicle controls.
Format: cell-based
Protocol: NQO1 Enzyme Activation Assay as a Readout of NRF2 Activation in THP-1 Cellular Background
NAD(P)H dehydrogenase [quinone] […] Induction of this gene is concomitant with the inhibition of proinflammatory cytokine transcription and suppression of the inflammatory response (Kobayashi E. H. et al., 2016). The NQO1 enzyme activation activities of compounds of formula (IW-1) were determined using a cellular based NQO1 activation assay (Abcam). The NQO1 activation assay was run in differentiated THP-1 cells (a human monocyte-like cell line) as described below. All reagents described are from Sigma-Aldrich unless specified otherwise. Compounds were prepared as 10 mM DMSO stocks.
THP-1 cells were expanded as a suspension up to 80% confluence in appropriate growth medium. Cells were harvested, suspended, treated with phorbol 12-myristate 13-acetate (PMA) and plated according to the cell density required for each plate format over a 72 hr period (37° C./5% CO2).
Following 72 hrs of THP-1 cell incubation, cellular medium was removed and replaced with fresh media. Working concentrations of compounds were prepared and pre-incubated for 30 minutes (37° C./5% CO2). Compound treatment was then applied to the PMA treated THP-1 cell plate followed by LPS treatment. A ‘low’ (DMSO vehicle only) control and ‘high’ (designated concentration of dimethyl fumarate) was applied to each plate at the point of compound treatment. Cells were subsequently incubated for a 48 hr period (37° C./5% C02) after which all NQO1 assay reagents were prepared according to the manufacturer's instructions. NQO1 extraction buffer was applied to PBS washed THP-1 cells and incubated on ice for 15 minutes to prepare THP-1 lysates for the NQO1 activity assay. THP-1 lysates were diluted 1:5 with PBS and treated with a 1:1 volume of kit prepared NQO1 Reaction Buffer. Absorbance was subsequently measured kinetically on an appropriate reader over a 6 minute period.
For activation determination, the fold change in response per well was determined by first calculating the average NQO1 activation data for the vehicle control and then dividing the individual well response by the averaged NQO1 response for the vehicle control as shown below: Fold change=(Sample value)/MeanMin Where ‘Min’=vehicle control only
The relative 50% activation concentration (EC50) was determined from the resulting fold change response curve. The maximum efficacy (Emax) was reported as the percentage activation calculated at the top concentration of compound used in the titration applied. If a full curve was unattainable preventing a correct curve fit, the Emax value was extrapolated using existing curve data. All percentage activation data were normalised to the DMF and vehicle controls, meaning the Emax represents the percentage […] achieved by a compound at a particular concentration relative to that achieved by DMF (set as the ‘High’ control and therefore representative of 100% activation).

SMILES	Emax [%]
C=C(CC(=O)OCCCCCCCC)C(=O)OCCC#N [Example 1, 1-(2-cyanoethyl) 4-octyl 2-methylenesuccinate]	167
C=C(CC(=O)OCCCCCCCC)C(=O)OCCS(C)(=O)=O [Example 2, 1-(2-(methylsulfonyl)ethyl) 4-octyl 2-methylenesuccinate]	213
C=C(CC(=O)OCCCCCCCC)C(=O)OCCC(F)(F)F [Example 3, 4-octyl 1-(3,3,3-trifluoropropyl) 2-methylenesuccinate]	91
C=C(CC(=O)OCCCCCCCC)C(=O)OC1COC1 [Example 4, 4-octyl 1-(oxetan-3-yl) 2-methylenesuccinate]	171
C=C(CC(=O)OCCCCCCCC)C(=O)OCCN1C(=O)CCC1=O [Example 9, 1-(2-(2,5-dioxopyrrolidin-1-yl)ethyl) 4-octyl 2-methylenesuccinate]	98
COC(=O)/C=C/C(=O)OC [dimethyl fumarate, reference compound]	126
C=C(CC(=O)OC)C(=O)OC [dimethyl itaconate, reference compound]	144

Same assay, conditions: Homo sapiens; differentiated THP-1 cells, LPS, 48 hr

pEC50	SMILES
4.89	COC(=O)/C=C/C(=O)OC [dimethyl fumarate, reference compound]
4.13	C=C(CC(=O)OC)C(=O)OC [dimethyl itaconate, reference compound]

Second part, the compound before the results:

SMILES	pEC50
C=C(CC(=O)OCCCCCCCC)C(=O)OCCC#N [Example 1, 1-(2-cyanoethyl) 4-octyl 2-methylenesuccinate]	5.16
C=C(CC(=O)OCCCCCCCC)C(=O)OCCS(C)(=O)=O [Example 2, 1-(2-(methylsulfonyl)ethyl) 4-octyl 2-methylenesuccinate]	5.34
C=C(CC(=O)OCCCCCCCC)C(=O)OCCC(F)(F)F [Example 3, 4-octyl 1-(3,3,3-trifluoropropyl) 2-methylenesuccinate]	4.83
C=C(CC(=O)OCCCCCCCC)C(=O)OC1COC1 [Example 4, 4-octyl 1-(oxetan-3-yl) 2-methylenesuccinate]	4.87
C=C(CC(=O)OCCCCCCCC)C(=O)OCCN1C(=O)CCC1=O [Example 9, 1-(2-(2,5-dioxopyrrolidin-1-yl)ethyl) 4-octyl 2-methylenesuccinate]	5.01

The compounds below were run on IL-1β cytokine output from isolated primary human monocytes (assay: Primary human monocyte AlphaLISA IL-1β cytokine assay). Details: CD14+ primary human monocytes, LPS 24 hr then Nigericin 1 hour.
Format: cell-based
Protocol: Measuring Inhibitory Effects on IL-1β and IL-6 Cytokine Output from Isolated Primary Human Monocytes
(§1) The cytokine inhibition profiles of compounds of formula (IW-1) were determined in a CD14^+ isolated primary human monocyte cell assay. All assays were performed in RPMI-1640 growth medium (Gibco), supplemented with heat-inactivated fetal bovine serum (FBS) and 1% penicillin-streptomycin unless specified otherwise. The IL-1β and IL-6 cytokine inhibition assays were each run in a background of isolated primary human monocyte cells as described below. All reagents described were from Sigma-Aldrich unless specified otherwise. Compounds were prepared as 100 mM DMSO stocks.
Primary peripheral blood mononuclear cells (PBMCs) were isolated from human whole blood. Following PBMC isolation, a CD14^+ monocyte isolation step was conducted whereby CD14^+ magnetic beads (Miltenyi Biotec) were incubated for 15 minutes with the PBMC suspension that was previously treated with ice cold T-cell isolation buffer (PBS, 0.5% BSA, 2 mM EDTA). Following bead incubation, the treated cell suspension was passed through a magnetic separation column designed to positively select for magnetically labelled cells. The isolated CD14^+ monocytes were subsequently plated at the appropriate cell density for the assay, prior to compound treatment on the day of plating. Working concentrations of compounds were prepared separately in RPMI-1640 only growth medium and pre-incubated with the cells for 30 minutes (37° C./5% CO2). Following the 30 minute compound pre-incubation, primary monocytes were treated with an appropriate concentration of LPS and subsequently incubated for a 24 hr period (37° C./5% CO2). An appropriate final concentration of Nigericin was then dispensed into the primary monocyte plates and incubated for 1 hour (37° C./5% CO2) before monocyte supernatants were harvested and collected in separate polypropylene 96-well holding plates prior to commencing the AlphaLISA cytokine assay.
Reagents from each of the IL-1β and IL-6 commercial kits (Perkin Elmer) were prepared and run according to the manufacturer's instructions. Subsequently, fluorescence signal was measured in a microplate reader (EnVision® Multilabel Reader, Perkin Elmer).
(§2) Percentage inhibition was calculated per cytokine by normalising the sample data to the high and low controls used within each plate (+/−LPS respectively). Percentage inhibition was then plotted against compound concentration and the 50% inhibitory concentration (IC50) was determined from the resultant concentration-response curve.

IL-1β (IC50)	SMILES
lower IC5s than dimethyl fumarate	C=C(CC(=O)OCCCCCCCC)C(=O)OCCS(C)(=O)=O [Example 2, 1-(2-(methylsulfonyl)ethyl) 4-octyl 2-methylenesuccinate]
lower IC5s than dimethyl fumarate	C=C(CC(=O)OCCCCCCCC)C(=O)OCCC(F)(F)F [Example 3, 4-octyl 1-(3,3,3-trifluoropropyl) 2-methylenesuccinate]
lower IC5s than dimethyl fumarate	C=C(CC(=O)OCCCCCCCC)C(=O)OCCN1C(=O)CCC1=O [Example 9, 1-(2-(2,5-dioxopyrrolidin-1-yl)ethyl) 4-octyl 2-methylenesuccinate]

Same assay, conditions: Monocyte; CD14+ primary human monocytes, LPS 24 hr then Nigericin 1 hour

pIC50	SMILES
4.09	C=C(CC(=O)OC1CCCCCCC1)C(=O)OCC(=O)O [Example 90, 2-((4-(cyclooctyloxy)-2-methylene-4-oxobutanoyl)oxy)acetic acid]
4.86	C=C(CC(=O)O[C@H](C)CCCCCC)C(=O)OCC(=O)O [Example 112, (R)-2-((2-methylene-4-(octan-2-yloxy)-4-oxobutanoyl)oxy)acetic acid]
5.07	COC(=O)/C=C/C(=O)OC [dimethyl fumarate, reference compound]

More lines, now with the values behind:

SMILES	pIC50
C=C(CC(=O)OCCCCCCCC)C(=O)OCCC#N [Example 1, 1-(2-cyanoethyl) 4-octyl 2-methylenesuccinate]	5.05
C=C(CC(=O)OCCCCCCCC)C(=O)OCCS(C)(=O)=O [Example 2, 1-(2-(methylsulfonyl)ethyl) 4-octyl 2-methylenesuccinate]	5.44
C=C(CC(=O)OCCCCCCCC)C(=O)OCCC(F)(F)F [Example 3, 4-octyl 1-(3,3,3-trifluoropropyl) 2-methylenesuccinate]	5.41
C=C(CC(=O)OCCCCCCCC)C(=O)OCCN1C(=O)CCC1=O [Example 9, 1-(2-(2,5-dioxopyrrolidin-1-yl)ethyl) 4-octyl 2-methylenesuccinate]	5.48
C=C(CC(=O)O[C@H](C)CCCCCC)C(=O)OCCC(=O)O [Example 88, (R)-3-((2-methylene-4-(octan-2-yloxy)-4-oxobutanoyl)oxy)propanoic acid]	4.76

Each compound was assayed on IL-1β cytokine output from isolated primary HMDMs (assay: Primary human monocyte derived macrophages (HMDMs) AlphaLISA IL-1β cytokine assay). Details: primary HMDMs (M-CSF 7 day), LPS 24 hr then Nigericin 1 hour.
Format: cell-based
Protocol: Measuring Inhibitory Effects on IL-1β Cytokine Output from Isolated Primary HMDMs
as §1, with “a” for “a CD14^+ isolated primary human”, “monocyte differentiated macrophage” for “monocyte”, “IL-1β” for “IL-1β and IL-6”, “assay was” for “assays were each”, “HMDM” for “human monocyte”
Primary peripheral blood mononuclear cells (PBMCs) were isolated from human whole blood. Following PBMC isolation, a CD14^+ monocyte isolation step was conducted whereby CD14^+ magnetic beads (Miltenyi Biotec) were incubated for 15 minutes with the PBMC suspension that was previously treated with ice cold T-cell isolation buffer (PBS, 0.5% BSA, 2 mM EDTA). Following bead incubation, the treated cell suspension was passed through a magnetic separation column designed to positively select for magnetically labelled cells. The isolated CD14^+ monocytes were subsequently plated at an appropriate cell density and treated fora 7 day period with M-CSF (BioLegend) to drive macrophage differentiation. Following the differentiation period, working concentrations of compounds were prepared separately in RPMI-1640 only growth medium and pre-incubated with the cells for 30 minutes (37° C./5% CO2). Following the 30 minute compound pre-incubation, primary HMDMs were treated with an appropriate concentration of LPS and subsequently incubated for a 24 hr period (37° C./5% CO2). Nigericin was added and incubated for 1 hour prior to harvesting primary HMDM supernatants and collected in separate polypropylene 96-well holding plates prior to commencing the AlphaLISA cytokine assay.
Reagents from the IL-1β commercial kit (Perkin Elmer) was prepared and run according to the manufacturer's instructions. Subsequently, fluorescence signal was measured in a microplate reader (EnVision® Multilabel Reader, Perkin Elmer).
as §2

pIC50	SMILES
6.40	C=C(CC(=O)OCCCCCCCC)C(=O)OCCC#N [Example 1, 1-(2-cyanoethyl) 4-octyl 2-methylenesuccinate]
6.52	C=C(CC(=O)OCCCCCCCC)C(=O)OCCS(C)(=O)=O [Example 2, 1-(2-(methylsulfonyl)ethyl) 4-octyl 2-methylenesuccinate]
6.15	C=C(CC(=O)OCCCCCCCC)C(=O)OCCC(F)(F)F [Example 3, 4-octyl 1-(3,3,3-trifluoropropyl) 2-methylenesuccinate]
6.40	C=C(CC(=O)OCCCCCCCC)C(=O)OC1COC1 [Example 4, 4-octyl 1-(oxetan-3-yl) 2-methylenesuccinate]
5.92	C=C(CC(=O)OCCCCCCCC)C(=O)OCCN1C(=O)CCC1=O [Example 9, 1-(2-(2,5-dioxopyrrolidin-1-yl)ethyl) 4-octyl 2-methylenesuccinate]
5.70	COC(=O)/C=C/C(=O)OC [dimethyl fumarate, reference compound]
